Experimental data as given in patent US20170280720A1, “ARGININE […] INHIBITORS AND USES THEREOF” (EPIZYME, INC., priority 2014, published 2017).

Target: T1, human PRMT1 (Homo sapiens, UniProt Q99873)
T1 construct: GST-tagged PRMT1; made in house; host or cells: High Five insect cells (baculovirus, pFastBacI)
Experiment: PRMT1 biochemical assay (3H-SAM Flashplate, peptide substrate)
Settings: read-out: PRMT1_ IC50
Method in brief: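 FLAG-tagged full-length human PRMT1 (0.5 nM, GST-tagged, insect-cell expressed) preincubated 30 min at RT with compound, then biotinylated histone H4 36-50 peptide (20 nM) plus 200 nM 3H-SAM and 1.5 uM SAM in Bicine pH 7.6, 2% DMSO. 3H-methylated peptide captured on streptavidin Flashplate; IC50 from 3/4-parameter fit.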

T1 sequence (Q99873 with tags, fused parts or gaps): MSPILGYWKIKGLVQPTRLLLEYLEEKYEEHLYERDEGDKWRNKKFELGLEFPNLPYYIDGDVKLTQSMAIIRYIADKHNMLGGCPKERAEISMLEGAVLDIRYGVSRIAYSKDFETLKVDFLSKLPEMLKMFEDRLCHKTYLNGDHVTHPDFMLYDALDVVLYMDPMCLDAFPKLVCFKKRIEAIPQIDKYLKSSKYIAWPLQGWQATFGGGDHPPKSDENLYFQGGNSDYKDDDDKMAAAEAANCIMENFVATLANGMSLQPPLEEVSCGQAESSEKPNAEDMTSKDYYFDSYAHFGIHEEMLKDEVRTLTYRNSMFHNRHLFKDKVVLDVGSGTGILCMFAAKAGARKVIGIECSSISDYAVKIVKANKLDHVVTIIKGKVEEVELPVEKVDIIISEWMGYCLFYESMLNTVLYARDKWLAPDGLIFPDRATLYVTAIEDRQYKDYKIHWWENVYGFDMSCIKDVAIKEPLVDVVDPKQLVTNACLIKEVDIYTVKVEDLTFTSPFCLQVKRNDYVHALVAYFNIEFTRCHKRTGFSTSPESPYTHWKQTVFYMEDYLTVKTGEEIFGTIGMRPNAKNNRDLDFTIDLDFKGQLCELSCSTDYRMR

| IC50 [nM] | Structure (SMILES) |
| --- | --- |
| 11800 | Cc1cc(C)c(CNC(=O)c2cc(CNCCN(C)C)cc3c2cnn3C2CCCC2)c(=O)[nH]1 [Compound 371] |
| 104 | CNCCN(C)Cc1ccc(-c2cc(C(=O)NCc3c(C)cc(C)[nH]c3=O)c(C)c3n[nH]cc23)cc1 [Compound 362] |
| 177 | CNCCN(C)Cc1cccc(-c2cc(C(=O)NCCCCCC(=O)NCc3c(C)cc(C)[nH]c3=O)c3cnn(C(C)C)c3n2)c1 [Compound 382] |
| 220 | CNCCN(C)Cc1cccc(-c2cc(C(=O)NCCC(=O)NCc3c(C)cc(C)[nH]c3=O)c3cnn(C(C)C)c3n2)c1 [Compound 384] |
| 21.7 | CNCCN(C)Cc1cccc(-c2nc(NCc3nccs3)c3cnn(C4CC4)c3n2)c1 [Compound 2] |
| 7490 | Cc1cc(C)c(CNC(=O)c2cc(-c3cccc(CNCCN)c3)nc3c2cnn3C(C)C)c(=O)[nH]1 [Compound 365] |
| 232 | CNCCN(C)Cc1cccc(-c2cc(C(=O)NCCCCC(=O)NCc3c(C)cc(C)[nH]c3=O)c3cnn(C(C)C)c3n2)c1 [Compound 385] |
| 4660 | Cc1cc(C)c(CNC(=O)c2cc(-c3ccc(CNCCN(C)C)cc3)nc3c2cnn3C(C)C)c(=O)[nH]1 [Compound 359] |
| 1220 | COc1nc(C)cc(C)c1CNC(=O)c1cc(-c2cccc(CNCCN)c2)nc2c1cnn2C(C)C [Compound 391] |
| 418 | CNCCN(C)Cc1ccc(-c2cc(C(=O)NCc3c(C)cc(C)[nH]c3=O)c(C)c3nn(C4CCCC4)cc23)cc1 [Compound 370] |
| 297 | Cc1cc(C)c(CNC(=O)c2cncc(-c3ccc(CN(C)CCN(C)C)cc3)c2)c(=O)[nH]1 [Compound 378] |
| 335 | Cc1cc(C)c(CNC(=O)c2cncc(-c3ccc(CNCCN)cc3)c2)c(=O)[nH]1 [Compound 379] |

| Structure (SMILES) | IC50 [nM] |
| --- | --- |
| CNCCN(C)Cc1cccc(-c2cc(C(=O)NCc3c(C)cc(C)[nH]c3=O)c3cnn(C(C)C)c3n2)c1 [Compound 368] | 86.6 |
| CNCCN(C)Cc1ccc(-c2cncc(C(=O)NCc3c(C)cc(C)[nH]c3=O)c2)cc1 [Compound 373] | 64.7 |
| CNCCN(C)Cc1cccc(-c2cc(C(=O)NCc3c(C)cc(C)[nH]c3=O)c(C)c3[nH]ncc23)c1 [Compound 372] | 59.6 |
| COc1nc(C)cc(C)c1CNC(=O)c1cc(-c2cccc(CN(C)CCN(C)C)c2)nc2c1cnn2C(C)C [Compound 386] | 1610 |
| Cc1cc(C)c(CNC(=O)c2cc(-c3cccc(CNCCN)c3)cc3[nH]ncc23)c(=O)[nH]1 [Compound 366] | 2400 |
| CNCCN(C)Cc1cccc(-c2cc(C(=O)NCCCC(=O)NCc3c(C)cc(C)[nH]c3=O)c3cnn(C(C)C)c3n2)c1 [Compound 383] | 212 |
| CNCCN(C)Cc1cccc(-c2cc(C(=O)NCc3c(C)cc(C)[nH]c3=O)c3cnn(C(C)C)c3c2)c1 [Compound 367] | 183 |
| Cc1cc(C)c(CNC(=O)c2cc(-c3cccc(CN(C)CCN(C)C)c3)nc3c2cnn3C(C)C)c(=O)[nH]1 [Compound 361] | 4270 |
| Cc1cc(C)c(CNC(=O)c2cncc(-c3ccc(CN(C)CCN)cc3)c2)c(=O)[nH]1 [Compound 374] | 73.1 |
| Cc1cc(C)c(CNC(=O)c2cc(-c3cccc(CN(C)CCN)c3)nc3c2cnn3C(C)C)c(=O)[nH]1 [Compound 360] | 254 |
